Source: patent US20090181110A1, “Compositions from Garcinia as Aromatase Inhibitors for Breast Cancer Chemoprevention and Chemotherapy” (THE OHIO STATE UNIVERSITY RESEARCH FOUNDATION, priority 2007, published 2009)
In brackets after ≈: the same amount, converted by molar mass. Several values for one entry are separate records, joined by “and”; a condition that tells them apart may be missing. Equal values may be shown once. Read-outs that look alike come from different tables or passages of the source. One block for each molecule: values may come before it.

What was measured:
[1] = target: T1, aromatase in SK-BR-3 cells (Homo sapiens, UniProt P11511); experiment: SK-BR-3 cell-based aromatase bioassay
T1 construct: SK-BR-3 hormone-independent human breast cancer cells that overexpress aromatase; endogenous in cells; host or cells: SK-BR-3 human breast cancer cells
T1 sequence (P11511 1-503): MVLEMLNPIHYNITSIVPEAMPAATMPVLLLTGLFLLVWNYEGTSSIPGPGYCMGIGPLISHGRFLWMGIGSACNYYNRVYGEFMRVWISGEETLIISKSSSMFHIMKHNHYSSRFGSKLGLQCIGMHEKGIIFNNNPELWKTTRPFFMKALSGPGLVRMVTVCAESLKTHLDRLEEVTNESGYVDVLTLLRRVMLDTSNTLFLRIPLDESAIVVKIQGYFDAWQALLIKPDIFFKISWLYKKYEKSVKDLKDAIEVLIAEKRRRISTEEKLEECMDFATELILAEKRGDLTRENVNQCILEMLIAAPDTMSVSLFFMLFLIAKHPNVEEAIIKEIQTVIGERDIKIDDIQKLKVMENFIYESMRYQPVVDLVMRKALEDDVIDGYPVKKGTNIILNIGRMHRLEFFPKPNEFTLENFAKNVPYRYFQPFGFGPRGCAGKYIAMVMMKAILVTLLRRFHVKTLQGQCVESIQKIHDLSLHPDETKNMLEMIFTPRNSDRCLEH

[2] = target: T2, aromatase (human placental microsomes) (Homo sapiens, UniProt P11511); experiment: Noncellular, enzyme-based, microsomal aromatase bioassay; assay type: biochemical; details: for Noncellular Bioassay PCA 20 μg/mL: percent control activity; for IC50: six concentrations 1-100 μM;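 on all read-outs here: aromatase activity read as tritiated water release by scintillation counting after 15 min at 37 °C, relative to DMSO vehicle, with boiled microsomes giving background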
T2 construct: Microsomes were obtained from the remaining tissue as described; from tissue; host or cells: human term placenta (microsomal fraction)
T2 sequence (P11511 1-503): T1 sequence (P11511 1-503)

[3] = system: quinone reductase; experiment: Quinone reductase (QR) induction assay in Hepa 1c1c7 cells; assay type: cell-based, murine
From the text: Thus compound 21 is a candidate for use as a cancer chemopreventive agent.

[4] = Peroxynitrite scavenging activity, SIN-1-derived ONOO−
Method: (§1) ONOO-scavenging activity was measured by monitoring the oxidation of nonfluorescent DHR 123 to highly fluorescent rhodamine 123 using the modified method of Kooy et al. Briefly, DHR 123 (5 mM) in EtOH, purged with nitrogen, was stored at −80° C. as a stock solution. This solution was not exposed to light, prior to the study. The rhodamine buffer (pH 7.4) consisted of 50 mM sodium phosphate dibasic, 50 mM sodium phosphate monobasic, 90 mM sodium chloride, 5 mM potassium chloride, and 100 μM DTPA. The final concentration of DHR 123 was 5 μM. The buffer in this assay was prepared before use and placed on ice. The concentrations of compounds tested were in the range from 0.2 to 100 μM in 10% DMSO. The background and final fluorescent intensities were measured 5 min after treatment with and without the addition of authentic ONOO— in 0.3 N sodium hydroxide (10 μM) or SIN-1 in deionized water (10 μM). DHR 123 was oxidized rapidly by ONOO—, superoxide anion (O2.-), and nitric oxide (NO.). The fluorescence intensity of oxidized DHR 123 was measured with an LS55 luminescence spectrometer (Perkin-Elmer, Boston, Mass.) at the excitation and emission wavelengths of 480 and 530 nm, respectively. […] DL-Penicillamine was used as a positive control.

[5] = Peroxynitrite scavenging activity, authentic ONOO−
Method: as §1

[6] = system: SK-BR-3 cells; experiment: SK-BR-3 cell-based cytotoxicity bioassay (MTT cell viability); parameters: species or system human; details: 50 μM
[7] = system: DMBA-induced preneoplastic lesions; experiment: Mouse mammary organ culture (MMOC) assay; assay type: cell-based; details: for percent inhibition of DMBA-induced preneoplastic lesions: 10 μg/mL
Method: This assay was carried out according to an established protocol disclosed in the art. In brief, 4-week-old BALB/c female mice (Charles River, Wilmington, Mass.) were pretreated for 9 days with 1 μg of estradiol and 1 mg of progesterone. On the 10th day, the mice were sacrificed and the second pair of thoracic mammary glands was dissected on silk and transferred to 60 mm culture dishes containing 5 mL of Waymouth's 752/1 MB medium supplemented with streptomycin, penicillin, and L-glutamine. The glands were incubated for 10 days (37° C., 95% O2 and 5% CO2) in the presence of growth-promoting hormones (5 μg of insulin, 5 μg of prolactin, 1 μg of aldosterone, and 1 μg of hydrocortisone per milliliter of medium). Glands were exposed to 2 μg/mL 7,12-dimethylbenz[a]anthracene (DMBA) between 72 and 96 h. After their exposure, glands were rinsed and transferred to new dishes with fresh medium. The fully differentiated glands were then permitted to regress by withdrawing all hormones except insulin for 14 additional days. Test compounds were present in the medium during days 1-10 of culture; mammary glands were scored for the incidence of lesions.

[8] = system: preneoplastic lesions (aberrant crypt foci); details: recent work, background statement, cited from earlier work
[9] = system: DMBA-induced preneoplastic lesions; details: background statement; cited from earlier work

Molecule: CC(C)=CCc1cc(/C=C/C(=O)c2ccc3c(c2O)C=CC(C)(C)O3)ccc1O [paratocarpin B]
aromatase inhibiting activity, in words [2]: show results that are supportive of these compounds having utility as aromatase inhibitors

Molecule: CC(C)=CCc1c(O)ccc2oc3cc4c(c(O)c3c(=O)c12)CC(C(C)(C)O)O4 (stereo not drawn) [Compound 22, 2,3-dihydro-4,7-dihydroxy-2-(2-hydroxypropan-2-yl)-6-(3-methylbut-2-enyl)furo[3,2-b]xanthen-5-one]
CD (concentration required to double QR induction activity) [3]: 2.2 µg/mL

Molecule: CC(C)=CCc1c(O)cc2oc3ccc4c(c3c(=O)c2c1O)C(O)C(C(C)(C)O)O4 (stereo not drawn) [Compound 21, 1,2-dihydro-1,8,10-trihydroxy-2-(2-hydroxypropan-2-yl)-9-(3-methylbut-2-enyl)furo[3,2-a]xanthen-11-one]
CD (concentration required to double QR induction activity) [3]: 1.3 µg/mL

Molecule: COc1c(O)cc2oc3cc4c(c(O)c3c(=O)c2c1CC=C(C)C)C=CC(C)(C)O4 [Compound 24, mangostanin]
CD (concentration required to double QR induction activity) [3]: 0.95 µg/mL

Molecule: O=C(/C=C/c1ccc(O)cc1)c1ccc(O)cc1O [isoliquiritigenin, reference compound]
CD (concentration required to double QR induction activity) [3]: 1.1 µg/mL

Molecule: 8-hydroxycudraxanthone G [Compound 1]
Noncellular Bioassay PCA 20 μg/mL [2]: 55.1 PCA
antioxidant activity, in words (SIN-1-derived ONOO−) [4]: potent antioxidant activity
antioxidant activity, in words (authentic ONOO−) [5]: potent antioxidant activity

Molecule: COc1c(O)cc2oc3cc(O)c(CC=C(C)C)c(O)c3c(=O)c2c1CC=C(C)C [Compound 10, α-mangostin]
IC50 in dose-response MMOC assay [7]: 1.0 µg/mL (≈ 2.44 µM)
percent inhibition of DMBA-induced preneoplastic lesions [7]: 57.1%
IC50 ([7]; same value in μM, read-out: IC50 in dose-response MMOC assay): 2.44 µM
aromatase inhibiting activity, in words [2]: greatest aromatiase inhibiting activity
Noncellular Bioassay PCA 20 μg/mL [2]: 22.2 PCA
IC50 [2]: 20.7 µM
Cytotoxicity % cell surv. [6]: 18.4%
antioxidant activity, in words (SIN-1-derived ONOO−) [4]: potent antioxidant activity
inhibition of preneoplastic lesions in colon carcinogenesis model, in words [8]: suppress the carcinogen-induced formation of aberrant crypt foci
inhibition of preneoplastic lesions in colon carcinogenesis model, in words ([8]; listed as crude α-mangostin (10) preparation): efficacy in inhibiting preneoplastic lesions
antioxidant activity, in words (authentic ONOO−) [5]: potent antioxidant activity
alveolar duct formation in mouse mammary organ culture model, in words [9]: inhibit alveolar duct formation
Cell-based Bioassay PCA 50 μM [1]: 59.4 PCA

Molecule: CC(C)=CCc1c(O)cc2oc3cc(O)c(O)c(CC=C(C)C)c3c(=O)c2c1O [Compound 11, γ-mangostin]
percent inhibition of DMBA-induced preneoplastic lesions [7]: 42.9%
aromatase inhibiting activity, in words [2]: greatest aromatiase inhibiting activity
Noncellular Bioassay PCA 20 μg/mL [2]: 4.7 PCA
IC50 [2]: 6.88 µM and 6.9 µM
antioxidant activity, in words (SIN-1-derived ONOO−) [4]: potent antioxidant activity
antioxidant activity, in words (authentic ONOO−) [5]: potent antioxidant activity
IC50 [1]: 4.97 ± 1.9 µM
Cell-based Bioassay PCA 50 μM [1]: −0.5 PCA

Molecule: CC(C)=CCc1c(O)cc2oc3ccc(O)c(CC=C(C)C)c3c(=O)c2c1O [Compound 23, 1,3,7-trihydroxy-2,8-di-(3-methylbut-2-enyl)xanthone]
CD (concentration required to double QR induction activity) [3]: 0.68 µg/mL

Molecule: COc1ccc([C@@H]2COc3c(ccc4c3C=CC(C)(C)O4)C2)c(O)c1 [4′O-methylglabridin]
aromatase inhibiting activity, in words [2]: show results that are supportive of these compounds having utility as aromatase inhibitors

Now from value to molecule, other results behind:

Cell-based Bioassay PCA (positive control) ([1]; 10 nM letrozole): 7.4 PCA
Molecule: N#Cc1ccc(C(c2ccc(C#N)cc2)n2cncn2)cc1 [LET, Letrozole, reference compound]

Noncellular Bioassay PCA 20 μg/mL [2]: 78.8 PCA
Molecule: CC(C)=CCC/C(C)=C/Cc1c(O)cc2oc3c(O)cccc3c(=O)c2c1O [Compound 12, mangostinone]

Noncellular Bioassay PCA 20 μg/mL [2]: 57.8 PCA
Molecule: cudraxanthone G [Compound 3]

Noncellular Bioassay PCA 20 μg/mL [2]: 52.6 PCA
Molecule: 1-isomangostin [Compound 9]

Noncellular Bioassay PCA 20 μg/mL [2]: 80.8 PCA
Molecule: CC(C)=CCC/C(C)=C/Cc1c(O)cc2oc3c(O)ccc(O)c3c(=O)c2c1O [Compound 13, smeathxanthone A]
antioxidant activity, in words (SIN-1-derived ONOO−) [4]: potent antioxidant activity
antioxidant activity, in words (authentic ONOO−) [5]: potent antioxidant activity

Noncellular Bioassay PCA 20 μg/mL [2]: 74.7 PCA
Molecule: CC(C)=CCc1c(O)cc2oc3c(CC=C(C)C)c(O)c4c(c3c(=O)c2c1O)C=CC(C)(C)O4 [Compound 14, tovophyllin A]

Noncellular Bioassay PCA 20 μg/mL [2]: 75.9 PCA
Molecule: CC(C)=CCc1c(O)c(CC=C(C)C)c2oc3c(O)ccc(O)c3c(=O)c2c1O [Compound 8, gartanin]

aromatase inhibiting activity, in words [2]: greatest aromatiase inhibiting activity
Noncellular Bioassay PCA 20 μg/mL [2]: 10.0 PCA
IC50 [2]: 5.16 µM and 5.2 µM
Cell-based Bioassay PCA 50 μM [1]: 50.7 PCA
Molecule: COc1c(O)cc2oc3cc(O)c(CC=C(C)C)c(O)c3c(=O)c2c1CCC(C)(C)O [Compound 6, garcinone D]
Cytotoxicity % cell surv. [6]: 89.4%

aromatase inhibiting activity, in words [2]: greatest aromatiase inhibiting activity
Noncellular Bioassay PCA 20 μg/mL [2]: 23.9 PCA
IC50 [2]: 25.1 µM
Cell-based Bioassay PCA 50 μM [1]: 32.3 PCA
Molecule: garcinone E [Compound 7]
Cytotoxicity % cell surv. [6]: 52.3%

Noncellular Bioassay PCA 20 μg/mL [2]: 82.6 PCA
Molecule: 8-deoxygartanin [Compound 4]
